{"source": "ChEMBL document CHEMBL2396574", "about": "“Design, synthesis and evaluation of retinoids with novel bulky hydrophobic partial structures” (Bioorg Med Chem, 2013)", "key": {"[1]": {"system": "HL-60", "assay": "Induction of human HL60 cell differentiation into myeloid cells at 10^-6 M after 4 days by NBT reduction assay", "type": "functional, cell-based"}, "[2]": {"system": "HL-60", "assay": "Induction of human HL60 cell differentiation into myeloid cells at 100 nM after 4 days by NBT reduction assay relative to control", "type": "functional"}, "[3]": {"system": "HL-60", "assay": "Induction of human HL60 cell differentiation into myeloid cells at 10 nM after 4 days by NBT reduction assay relative to control", "type": "functional"}, "[4]": {"target": "T1, Retinoic acid receptor RXR-gamma (Homo sapiens) (UniProt P48443)", "T1 sequence (whole entry)": "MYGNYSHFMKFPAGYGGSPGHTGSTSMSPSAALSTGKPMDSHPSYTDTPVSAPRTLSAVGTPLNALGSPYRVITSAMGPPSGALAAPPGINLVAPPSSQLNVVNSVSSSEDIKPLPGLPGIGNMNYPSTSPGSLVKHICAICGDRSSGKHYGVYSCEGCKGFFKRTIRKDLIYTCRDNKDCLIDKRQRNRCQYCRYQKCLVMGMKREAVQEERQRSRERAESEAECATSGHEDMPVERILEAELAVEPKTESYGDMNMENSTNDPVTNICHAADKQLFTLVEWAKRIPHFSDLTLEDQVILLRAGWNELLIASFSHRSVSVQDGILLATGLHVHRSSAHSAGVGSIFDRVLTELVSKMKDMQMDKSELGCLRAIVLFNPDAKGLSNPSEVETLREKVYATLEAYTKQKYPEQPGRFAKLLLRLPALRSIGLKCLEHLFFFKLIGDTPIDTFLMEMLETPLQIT", "assay": "Transactivation of full-length RXRgamma (unknown origin) expressed in African green monkey COS1 cells at 1000 nM by luciferase reporter gene assay", "type": "cell-based", "settings": "COS-1"}, "[5]": {"target": "T2, Retinoic acid receptor RXR-beta (Homo sapiens) (UniProt P28702)", "T2 sequence (whole entry)": "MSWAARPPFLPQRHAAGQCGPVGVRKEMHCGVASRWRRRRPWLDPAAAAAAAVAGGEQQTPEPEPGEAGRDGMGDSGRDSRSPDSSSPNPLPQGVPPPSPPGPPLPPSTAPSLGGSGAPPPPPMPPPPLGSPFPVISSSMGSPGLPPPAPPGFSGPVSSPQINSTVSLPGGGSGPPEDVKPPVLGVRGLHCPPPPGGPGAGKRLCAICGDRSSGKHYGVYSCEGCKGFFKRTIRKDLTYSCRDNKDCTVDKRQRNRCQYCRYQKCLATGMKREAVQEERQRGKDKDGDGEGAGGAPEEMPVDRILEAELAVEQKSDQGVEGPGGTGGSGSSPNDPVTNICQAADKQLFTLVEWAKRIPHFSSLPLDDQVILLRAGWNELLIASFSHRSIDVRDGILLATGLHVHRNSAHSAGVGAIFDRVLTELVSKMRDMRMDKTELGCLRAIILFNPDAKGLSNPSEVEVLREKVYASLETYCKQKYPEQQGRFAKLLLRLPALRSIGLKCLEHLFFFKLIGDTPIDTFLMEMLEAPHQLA", "assay": "Transactivation of full-length RXRbeta (unknown origin) expressed in African green monkey COS1 cells at 1000 nM by luciferase reporter gene assay", "type": "cell-based", "settings": "COS-1"}, "[6]": {"target": "T3, Retinoic acid receptor gamma (Homo sapiens) (UniProt P13631)", "T3 sequence (whole entry)": "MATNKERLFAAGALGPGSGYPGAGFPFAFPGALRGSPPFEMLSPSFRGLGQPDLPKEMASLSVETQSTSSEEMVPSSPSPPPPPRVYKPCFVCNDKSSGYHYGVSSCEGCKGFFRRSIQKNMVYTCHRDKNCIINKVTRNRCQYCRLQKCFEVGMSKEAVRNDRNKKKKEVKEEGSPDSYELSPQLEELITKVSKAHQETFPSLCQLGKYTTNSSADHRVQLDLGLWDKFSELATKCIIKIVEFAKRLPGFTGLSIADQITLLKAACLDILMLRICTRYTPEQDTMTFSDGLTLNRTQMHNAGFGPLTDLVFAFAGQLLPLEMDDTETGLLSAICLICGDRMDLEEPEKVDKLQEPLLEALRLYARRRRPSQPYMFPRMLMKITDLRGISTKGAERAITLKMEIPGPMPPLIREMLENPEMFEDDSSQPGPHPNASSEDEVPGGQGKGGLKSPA", "assay": "Transactivation of Gal4-fused RARgamma (unknown origin) expressed in African green monkey COS1 cells at 100 nM by luciferase reporter gene assay relative to DMSO-treated control", "type": "cell-based", "settings": "COS-1"}, "[7]": {"target": "T4, Retinoic acid receptor beta (Homo sapiens) (UniProt P10826)", "T4 sequence (whole entry)": "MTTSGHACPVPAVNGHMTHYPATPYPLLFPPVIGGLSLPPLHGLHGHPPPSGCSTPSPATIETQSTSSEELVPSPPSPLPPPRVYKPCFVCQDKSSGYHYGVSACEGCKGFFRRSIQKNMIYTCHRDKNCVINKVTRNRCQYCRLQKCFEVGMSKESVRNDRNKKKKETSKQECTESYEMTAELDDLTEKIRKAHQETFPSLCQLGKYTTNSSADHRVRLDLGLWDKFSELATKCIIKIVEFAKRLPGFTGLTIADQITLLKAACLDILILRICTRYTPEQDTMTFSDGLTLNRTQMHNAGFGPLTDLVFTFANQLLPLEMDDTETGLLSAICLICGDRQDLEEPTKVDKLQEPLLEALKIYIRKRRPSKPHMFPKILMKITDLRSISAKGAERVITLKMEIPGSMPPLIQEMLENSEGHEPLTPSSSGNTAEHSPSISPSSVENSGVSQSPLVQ", "assay": "Transactivation of Gal4-fused RARbeta (unknown origin) expressed in African green monkey COS1 cells at 100 nM by luciferase reporter gene assay relative to DMSO-treated control", "type": "cell-based", "settings": "COS-1"}}, "note": "Activity calls are given as the source filed them. The calls are words filed in the database; no cut-off is given here.", "data": [{"compound": "O=C(Nc1ccc(C(=O)O)c(F)c1)c1cc2c3c(c1)CCCCC3CCCC2", "values": [{"measurement": "Activity", "setting": "[1]", "value": "Active"}, {"measurement": "Activity", "setting": "[2]", "value": 44, "unit": "%"}, {"measurement": "Activity", "setting": "[3]", "value": 28, "unit": "%"}, {"measurement": "Activity", "setting": "[4]", "value": "inactive"}, {"measurement": "Activity", "setting": "[5]", "value": "inactive"}, {"measurement": "fold change (FC)", "setting": "[6]", "value": 5}, {"measurement": "fold change (FC)", "setting": "[7]", "value": 19}]}, {"compound": "COc1cc(NC(=O)c2cc3c4c(c2)CCCC4CCC3)ccc1C(=O)O", "values": [{"measurement": "Activity", "setting": "[2]", "value": 10, "unit": "%"}, {"measurement": "Activity", "setting": "[3]", "value": 7, "unit": "%"}, {"measurement": "Activity", "setting": "[4]", "value": "inactive"}, {"measurement": "Activity", "setting": "[5]", "value": "inactive"}, {"measurement": "fold change (FC)", "setting": "[6]", "value": 1}, {"measurement": "fold change (FC)", "setting": "[7]", "value": 2}]}, {"compound": "CC12CCCc3cc(NC(=O)c4ccc(C(=O)O)cn4)cc(c31)CCC2", "values": [{"measurement": "Activity", "setting": "[2]", "value": 16, "unit": "%"}, {"measurement": "Activity", "setting": "[3]", "value": 5, "unit": "%"}, {"measurement": "Activity", "setting": "[4]", "value": "inactive"}, {"measurement": "Activity", "setting": "[5]", "value": "inactive"}, {"measurement": "fold change (FC)", "setting": "[6]", "value": 2}, {"measurement": "fold change (FC)", "setting": "[7]", "value": 26}]}, {"compound": "O=C(O)c1ccc(NC(=O)c2cc3c4c(c2)CCCC4CCC3)nc1", "values": [{"measurement": "Activity", "setting": "[2]", "value": 59, "unit": "%"}, {"measurement": "Activity", "setting": "[3]", "value": 54, "unit": "%"}, {"measurement": "Activity", "setting": "[4]", "value": "inactive"}, {"measurement": "Activity", "setting": "[5]", "value": "inactive"}, {"measurement": "fold change (FC)", "setting": "[6]", "value": 20}, {"measurement": "fold change (FC)", "setting": "[7]", "value": 40}]}, {"compound": "O=C(O)c1ccc(C(=O)Nc2cc3c4c(c2)CCCC4CCC3)cc1", "values": [{"measurement": "Activity", "setting": "[2]", "value": 18, "unit": "%"}, {"measurement": "Activity", "setting": "[3]", "value": 7, "unit": "%"}, {"measurement": "Activity", "setting": "[4]", "value": "inactive"}, {"measurement": "Activity", "setting": "[5]", "value": "inactive"}, {"measurement": "fold change (FC)", "setting": "[6]", "value": 1}, {"measurement": "fold change (FC)", "setting": "[7]", "value": 5}]}, {"compound": "O=C(Nc1ccc(C(=O)O)c(O)c1)c1cc2c3c(c1)CCCCC3CCCC2", "values": [{"measurement": "Activity", "setting": "[2]", "value": 41, "unit": "%"}, {"measurement": "Activity", "setting": "[3]", "value": 29, "unit": "%"}, {"measurement": "Activity", "setting": "[4]", "value": "inactive"}, {"measurement": "Activity", "setting": "[5]", "value": "inactive"}, {"measurement": "fold change (FC)", "setting": "[6]", "value": 2}, {"measurement": "fold change (FC)", "setting": "[7]", "value": 11}]}]}
